The source of these data is US8871753B2, “Macrocyclic compounds and their use as kinase inhibitors” (Incyte Corporation, priority 2008, dated 2014).

Structures are written as SMILES. Structures can show the parent of a compound that is named as a salt. Where only a bound is given, the exact number is not on record here.

Holding throughout (type): biochemical
Test [1] concerns the target T1, Recombinant Human Anaplastic Lymphoma Kinase (Homo sapiens, UniProt Q9UM73).
T1 construct: purchased Invitrogen, Carlsbad, Calif
The test is described as follows: ALK HTRF kinase assay. The settings on record: for IC50: Table B1, cells without percent sign; for ALK % of inhibition at a concentration of 500 nM or 1 mM: compound at a concentration of 500 nM or 1 mM (not specified), cells shown as percentage. Summed up:
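IC50 was obtained from a logistic fit of signal versus log inhibitor concentration, using pre- and post-transition baselines and a Hill slope. The signal reported tyrosine phosphorylation of a biotinylated peptide by recombinant human kinase, detected as Eu-to-APC energy transfer.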
For orientation: Time-resolved FRET reads energy transfer from a long-lived donor to a nearby acceptor.

The target in test [2] is T2, human JAK2 (a.a. 828-1132) (Homo sapiens, UniProt O60674).
T2 construct: JAK2 (a.a. 828-1132); His tag (N); made in house; host or cells: insect cells (baculovirus)
T2 sequence (O60674 828-1132): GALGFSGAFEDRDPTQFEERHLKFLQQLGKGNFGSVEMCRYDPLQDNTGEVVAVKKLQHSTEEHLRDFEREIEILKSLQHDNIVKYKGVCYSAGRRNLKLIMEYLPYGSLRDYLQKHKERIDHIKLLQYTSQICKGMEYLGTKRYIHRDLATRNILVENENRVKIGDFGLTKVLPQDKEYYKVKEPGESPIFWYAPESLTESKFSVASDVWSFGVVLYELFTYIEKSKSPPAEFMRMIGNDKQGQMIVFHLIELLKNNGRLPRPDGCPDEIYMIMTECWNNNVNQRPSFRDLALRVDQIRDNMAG
The test is described as follows: In vitro JAK kinase assay (HTRF, phosphorylation of a biotinylated peptide), JAK2. Particulars: Table B1. In outline:
(§1)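 Kinase reactions ran at room temperature for 1 h with ATP matched per isoform (JAK1 90 μM, JAK2 30 μM, JAK3 3 μM). After an EDTA stop, the phosphorylated biotin-peptide was read by HTRF using Eu-Py20 and SA-APC after 40 min binding.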

In test [3] the target is T3, human JAK1 (a.a. 837-1142) (Homo sapiens, UniProt P23458).
T3 construct: human JAK1 (a.a. 837-1142); His tag (N); made in house; host or cells: insect cells (baculovirus)
T3 sequence (P23458 849-1154): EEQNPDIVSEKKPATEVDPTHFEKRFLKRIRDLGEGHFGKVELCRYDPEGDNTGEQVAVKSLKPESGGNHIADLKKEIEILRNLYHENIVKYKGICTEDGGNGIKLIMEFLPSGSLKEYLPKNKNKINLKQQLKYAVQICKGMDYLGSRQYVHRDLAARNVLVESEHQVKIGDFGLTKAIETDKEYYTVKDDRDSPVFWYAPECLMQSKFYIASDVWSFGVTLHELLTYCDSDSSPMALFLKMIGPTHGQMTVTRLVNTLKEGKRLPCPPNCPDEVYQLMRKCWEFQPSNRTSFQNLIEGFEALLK
The test is described as follows: In vitro JAK kinase assay (HTRF, phosphorylation of a biotinylated peptide), JAK1. Particulars: Table B1; read-out: JAK1 IC50. In outline:
as §1

Test [4] concerns the target TYK2 (Homo sapiens, UniProt P29597). The test is described as follows: TYK2 kinase inhibition (Table A1). The settings on record: Table B1.
Test [5] has as its target T4, human JAK3 (a.a. 781-1124) (Homo sapiens, UniProt P52333).
T4 construct: JAK3 (a.a. 781-1124); His tag (N); made in house; host or cells: insect cells (baculovirus)
The test is described as follows: In vitro JAK kinase assay (HTRF, phosphorylation of a biotinylated peptide), JAK3. Particulars: Table B1. In outline:
as §1

T4 sequence (P52333 781-1124): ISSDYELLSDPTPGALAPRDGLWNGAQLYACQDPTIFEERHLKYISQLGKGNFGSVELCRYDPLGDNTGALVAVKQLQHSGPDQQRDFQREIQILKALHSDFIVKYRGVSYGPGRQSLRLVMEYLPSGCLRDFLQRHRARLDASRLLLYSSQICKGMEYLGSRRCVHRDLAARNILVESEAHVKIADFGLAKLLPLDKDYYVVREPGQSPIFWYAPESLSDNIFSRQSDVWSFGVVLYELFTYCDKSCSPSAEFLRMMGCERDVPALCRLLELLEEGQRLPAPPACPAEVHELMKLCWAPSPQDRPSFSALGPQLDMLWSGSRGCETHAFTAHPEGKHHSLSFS
T1 sequence (Q9UM73 19-1620): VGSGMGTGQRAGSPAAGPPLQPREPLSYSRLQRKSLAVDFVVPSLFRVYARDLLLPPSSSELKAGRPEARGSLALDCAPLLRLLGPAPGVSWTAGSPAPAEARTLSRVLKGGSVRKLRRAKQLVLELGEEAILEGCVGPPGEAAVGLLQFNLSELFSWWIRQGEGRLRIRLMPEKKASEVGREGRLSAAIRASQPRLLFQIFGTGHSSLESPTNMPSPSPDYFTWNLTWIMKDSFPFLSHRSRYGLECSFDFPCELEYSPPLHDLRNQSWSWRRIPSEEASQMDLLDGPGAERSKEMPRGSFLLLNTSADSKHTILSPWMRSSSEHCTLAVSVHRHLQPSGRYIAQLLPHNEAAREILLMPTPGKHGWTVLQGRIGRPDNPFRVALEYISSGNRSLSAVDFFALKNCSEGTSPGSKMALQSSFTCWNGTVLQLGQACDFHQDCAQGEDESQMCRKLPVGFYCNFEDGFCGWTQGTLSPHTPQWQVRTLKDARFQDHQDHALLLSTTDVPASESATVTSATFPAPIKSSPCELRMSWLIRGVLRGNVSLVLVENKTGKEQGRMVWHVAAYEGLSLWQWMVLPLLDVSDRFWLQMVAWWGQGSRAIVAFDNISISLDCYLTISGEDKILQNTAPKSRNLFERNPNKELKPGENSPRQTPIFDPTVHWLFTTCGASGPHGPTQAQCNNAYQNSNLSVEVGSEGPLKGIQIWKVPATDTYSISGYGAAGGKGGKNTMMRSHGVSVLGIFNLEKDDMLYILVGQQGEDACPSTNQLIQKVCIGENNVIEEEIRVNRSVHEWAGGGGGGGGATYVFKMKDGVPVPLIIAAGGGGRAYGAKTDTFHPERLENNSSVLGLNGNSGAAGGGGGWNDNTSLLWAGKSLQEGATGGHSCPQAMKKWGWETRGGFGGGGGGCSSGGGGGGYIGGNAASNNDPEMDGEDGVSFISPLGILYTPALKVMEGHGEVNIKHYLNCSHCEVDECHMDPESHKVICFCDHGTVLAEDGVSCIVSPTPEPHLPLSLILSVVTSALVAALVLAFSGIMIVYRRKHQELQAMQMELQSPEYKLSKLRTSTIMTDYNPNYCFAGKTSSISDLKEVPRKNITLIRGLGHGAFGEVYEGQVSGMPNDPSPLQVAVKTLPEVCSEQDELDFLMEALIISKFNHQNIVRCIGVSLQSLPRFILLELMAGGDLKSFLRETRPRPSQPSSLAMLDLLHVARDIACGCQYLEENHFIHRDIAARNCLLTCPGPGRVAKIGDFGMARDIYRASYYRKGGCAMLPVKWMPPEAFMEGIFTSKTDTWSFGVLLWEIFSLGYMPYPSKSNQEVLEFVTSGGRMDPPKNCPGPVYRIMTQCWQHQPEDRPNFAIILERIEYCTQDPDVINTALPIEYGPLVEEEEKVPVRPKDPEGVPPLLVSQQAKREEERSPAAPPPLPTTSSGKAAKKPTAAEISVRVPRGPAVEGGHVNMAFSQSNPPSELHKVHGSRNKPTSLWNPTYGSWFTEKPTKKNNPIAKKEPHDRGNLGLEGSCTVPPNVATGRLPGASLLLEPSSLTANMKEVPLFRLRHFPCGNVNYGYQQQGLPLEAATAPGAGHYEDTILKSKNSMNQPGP
Sequence of TYK2 (P29597 whole entry): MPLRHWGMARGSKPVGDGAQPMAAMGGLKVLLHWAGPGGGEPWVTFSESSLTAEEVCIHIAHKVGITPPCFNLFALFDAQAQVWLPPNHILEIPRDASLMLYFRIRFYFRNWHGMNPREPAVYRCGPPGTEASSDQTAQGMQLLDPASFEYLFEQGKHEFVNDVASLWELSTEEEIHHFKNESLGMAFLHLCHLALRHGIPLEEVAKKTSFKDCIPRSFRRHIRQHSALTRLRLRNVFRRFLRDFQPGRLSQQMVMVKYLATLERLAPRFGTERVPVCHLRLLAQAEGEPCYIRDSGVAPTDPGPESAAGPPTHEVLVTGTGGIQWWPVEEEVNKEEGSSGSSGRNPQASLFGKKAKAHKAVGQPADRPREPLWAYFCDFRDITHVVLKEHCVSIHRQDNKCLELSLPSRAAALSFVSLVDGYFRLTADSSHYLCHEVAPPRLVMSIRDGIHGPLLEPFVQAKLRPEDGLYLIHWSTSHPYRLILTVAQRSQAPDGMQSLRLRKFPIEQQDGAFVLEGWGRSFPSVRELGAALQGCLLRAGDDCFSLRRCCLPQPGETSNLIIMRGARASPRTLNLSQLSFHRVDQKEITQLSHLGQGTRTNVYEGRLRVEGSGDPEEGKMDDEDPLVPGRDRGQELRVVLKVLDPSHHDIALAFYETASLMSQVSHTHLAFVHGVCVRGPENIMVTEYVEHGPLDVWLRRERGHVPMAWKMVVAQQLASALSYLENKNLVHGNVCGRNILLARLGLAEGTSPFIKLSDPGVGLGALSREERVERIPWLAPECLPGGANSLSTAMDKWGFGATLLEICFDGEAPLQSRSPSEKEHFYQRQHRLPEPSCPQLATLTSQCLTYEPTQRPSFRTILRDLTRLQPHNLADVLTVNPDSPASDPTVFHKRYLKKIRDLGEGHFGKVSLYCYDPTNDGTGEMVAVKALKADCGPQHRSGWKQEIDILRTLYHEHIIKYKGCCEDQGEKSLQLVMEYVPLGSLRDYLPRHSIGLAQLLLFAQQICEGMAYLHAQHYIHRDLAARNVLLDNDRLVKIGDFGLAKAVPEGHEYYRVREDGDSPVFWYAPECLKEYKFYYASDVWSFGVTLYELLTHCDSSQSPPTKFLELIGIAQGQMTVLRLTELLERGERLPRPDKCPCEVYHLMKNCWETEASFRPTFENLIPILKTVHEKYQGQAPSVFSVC

On to `CC(C)(C)C(=O)Nc1ccc2cc1CCc1cccc(c1)Nc1ncc(Cl)c(n1)N2` [Example B58, N-[6-Chloro-2,4,8,22-tetraazatetracyclo[14.3.1.1(3,7).1(9,13)]docosa-1(20), 3(22),4,6,9(21),10,12,16,18-nonaen-12-yl]-2,2-dimethylpropanamide trifluoroacetate], for which the IC50 – broadly, the concentration at which inhibition is half-maximal – in test [1] was more than 1000 nM; in test [2], 47 nM; in test [3], 365 nM; in test [4], 228 nM; in test [5], 107 nM.

Consider `O=C(Nc1ccc2cc1CCc1cccc(c1)Nc1ncc(Cl)c(n1)N2)c1ccoc1` [Example B59, N-[6-Chloro-2,4,8,22-tetraazatetracyclo[14.3.1.1(3,7).1(9,13)]docosa-1(20), 3(22),4,6,9(21),10,12,16,18-nonaen-12-yl]-3-furamide trifluoroacetate], for which the IC50 in test [1] worked out at 700 nM; in test [2], 2.4 nM; in test [3] it was 2.4 nM; in test [4] it was 5.3 nM; in test [5], 5.1 nM.

With `O=C(Nc1ccc2cc1CCc1cccc(c1)Nc1ncc(Cl)c(n1)N2)C1CCCC1` [Example B60, N-[6-Chloro-2,4,8,22-tetraazatetracyclo[14.3.1.1(3,7).1(9,13)]docosa-1(20), 3(22),4,6,9(21),10,12,16,18-nonaen-12-yl]cyclopentanecarboxamide trifluoroacetate], the concentration for half-maximal inhibition (IC50) in test [1] was more than 1000 nM; in test [2] it was 8.4 nM; in test [3], 22 nM; in test [4], 47 nM; in test [5], 20 nM.

For `CCC(C)C(=O)Nc1ccc2cc1CCc1cccc(c1)Nc1ncc(Cl)c(n1)N2` (centres unmarked) [Example B61, N-[6-Chloro-2,4,8,22-tetraazatetracyclo[14.3.1.1(3,7).1(9,13)]docosa-1(20), 3(22),4,6,9(21),10,12,16,18-nonaen-12-yl]-2-methylbutanamide trifluoroacetate], the half-maximal inhibitory concentration (IC50) came to 680 nM in test [1]; 1.4 nM in test [2]; 19 nM in test [3]; 34 nM in test [4]; 3 nM in test [5].

As for `O=C(Nc1ccc2cc1CCc1cccc(c1)Nc1ncc(Cl)c(n1)N2)c1ccsc1` [Example B62, N-[6-Chloro-2,4,8,22-tetraazatetracyclo[14.3.1.1(3,7).1(9,13)]docosa-1(20), 3(22),4,6,9(21),10,12,16,18-nonaen-12-yl]thiophene-3-carboxamide trifluoroacetate], the concentration for half-maximal inhibition (IC50) came to 210 nM in test [1]; 1.9 nM in test [2]; 1.8 nM in test [3]; 2.7 nM in test [4]; 4.8 nM in test [5].

For the compound `O=C(Nc1ccc2cc1CCc1cccc(c1)Nc1ncc(Cl)c(n1)N2)C1CCCCC1` [Example B63, N-[6-Chloro-2,4,8,22-tetraazatetracyclo[14.3.1.1(3,7).1(9,13)]docosa-1(20), 3(22),4,6,9(21),10,12,16,18-nonaen-12-yl]cyclohexanecarboxamide trifluoroacetate], the IC50 in test [1] worked out at 600 nM; in test [2], 12 nM; in test [3], 18 nM; in test [4], 34 nM; in test [5], 56 nM.

Take `N#Cc1ccc(C(=O)Nc2ccc3cc2CCc2cccc(c2)Nc2ncc(Cl)c(n2)N3)cc1` [Example B64, N-[6-Chloro-2,4,8,22-tetraazatetracyclo[14.3.1.1(3,7).1(9,13)]docosa-1(20), 3(22),4,6,9(21),10,12,16,18-nonaen-12-yl]-4-cyanobenzamide trifluoroacetate]: the half-inhibitory concentration (IC50) in test [1] worked out at 150 nM; in test [2], 0.73 nM; in test [3] it was 1.2 nM; in test [4] it was 3.2 nM; in test [5], 10 nM.

Take `N#Cc1cccc(C(=O)Nc2ccc3cc2CCc2cccc(c2)Nc2ncc(Cl)c(n2)N3)c1` [Example B65, N-[6-Chloro-2,4,8,22-tetraazatetracyclo[14.3.1.1(3,7).1(9,13)]docosa-1(20), 3(22),4,6,9(21),10,12,16,18-nonaen-12-yl]-3-cyanobenzamide trifluoroacetate]: the half-maximal inhibitory concentration (IC50) in test [1] was found to be 290 nM; in test [2], 1.8 nM; in test [3] it was 3.4 nM; in test [4] it was 5.9 nM; in test [5], 8.8 nM.

Take `COc1cccc(C(=O)Nc2ccc3cc2CCc2cccc(c2)Nc2ncc(Cl)c(n2)N3)c1` [Example B66, N-[6-Chloro-2,4,8,22-tetraazatetracyclo[14.3.1.1(3,7).1(9,13)]docosa-1(20), 3(22),4,6,9(21),10,12,16,18-nonaen-12-yl]-3-methoxybenzamide trifluoroacetate]: the half-maximal inhibitory concentration (IC50) is 310 nM in test [1]; 1.6 nM in test [2]; 3 nM in test [3]; 4.5 nM in test [4]; 13 nM in test [5].

Turning to `COc1ccc(C(=O)Nc2ccc3cc2CCc2cccc(c2)Nc2ncc(Cl)c(n2)N3)cc1` [Example B67, N-[6-Chloro-2,4,8,22-tetraazatetracyclo[14.3.1.1(3,7).1(9,13)]docosa-1(20), 3(22),4,6,9(21),10,12,16,18-nonaen-12-yl]-4-methoxybenzamide trifluoroacetate], the half-maximal inhibitory concentration (IC50) is 220 nM in test [1]; 1.9 nM in test [2]; 3.2 nM in test [3]; 6 nM in test [4]; 15 nM in test [5].

As to `Cc1cc(C(=O)Nc2ccc3cc2CCc2cccc(c2)Nc2ncc(Cl)c(n2)N3)no1` [Example B68, N-[6-Chloro-2,4,8,22-tetraazatetracyclo[14.3.1.1(3,7).1(9,13)]docosa-1(20), 3(22),4,6,9(21),10,12,16,18-nonaen-12-yl]-5-methylisoxazole-3-carboxamide trifluoroacetate], the “ALK % of inhibition at a concentration of 500 nM or 1 mM” value (from here on “ALK % of inhibition”) in test [1] is 19%. Besides, the IC50 came out at 2.3 nM in test [2], 1.4 nM in test [3], 3.6 nM in test [4] and 19 nM in test [5].

In the case of `O=C(Nc1ccc2cc1CCc1cccc(c1)Nc1ncc(Cl)c(n1)N2)c1ccc(Cl)nc1` [Example B69, 6-Chloro-N-[6-chloro-2,4,8,22-tetraazatetracyclo[14.3.1.1(3,7).1(9,13)]docosa-1(20),3(22),4,6,9(21),10,12,16,18-nonaen-12-yl]nicotinamide bis(trifluoroacetate)], in test [1], the “ALK % of inhibition” value amounted to 68%. Moreover, the concentration for half-maximal inhibition (IC50) in test [2] is 0.6 nM; in test [3], 0.45 nM; in test [4] it was 2.3 nM; in test [5], 3.6 nM.

Turning to `O=C(Nc1ccc2cc1CCc1cccc(c1)Nc1ncc(Cl)c(n1)N2)c1cccnc1Cl` [Example B70, 2-Chloro-N-[6-chloro-2,4,8,22-tetraazatetracyclo[14.3.1.1(3,7).1(9,13)]docosa-1(20),3(22),4,6,9(21),10,12,16,18-nonaen-12-yl]nicotinamide bis(trifluoroacetate)], the “ALK % of inhibition” value in test [1] is reported as 82%. The IC50 in test [2] came out at 0.64 nM; in test [3] it was 1.5 nM; in test [4], 2.5 nM; in test [5] it was 2.4 nM.

`O=C(Nc1ccc2cc1CCc1cccc(c1)Nc1ncc(Cl)c(n1)N2)c1ccc2c(c1)OCO2` [Example B71, N-[6-Chloro-2,4,8,22-tetraazatetracyclo[14.3.1.1(3,7).1(9,13)]docosa-1(20), 3(22),4,6,9(21),10,12,16,18-nonaen-12-yl]-1,3-benzodioxole-5-carboxamide trifluoroacetate]: the “ALK % of inhibition” value in test [1] was 43%. Further, the IC50 worked out at 4.9 nM in test [2], 1.9 nM in test [3], 9.6 nM in test [4] and 24 nM in test [5].

Consider `O=C(Nc1ccc2cc1CCc1cccc(c1)Nc1ncc(Cl)c(n1)N2)c1cnc2ccccc2n1` [Example B72, N-[6-Chloro-2,4,8,22-tetraazatetracyclo[14.3.1.1(3,7).1(9,13)]docosa-1(20), 3(22),4,6,9(21),10,12,16,18-nonaen-12-yl]quinoxaline-2-carboxamide bis(trifluoroacetate)], for which the “ALK % of inhibition” value in test [1] amounted to 12%. Moreover, the IC50 was 55 nM in test [2], 200 nM in test [3], 77 nM in test [4] and more than 500 nM in test [5].

For `CC(C)(C)c1ccc(C(=O)Nc2ccc3cc2CCc2cccc(c2)Nc2ncc(Cl)c(n2)N3)cc1` [Example B73, 4-tert-Butyl-N-[6-chloro-2,4,8,22-tetraazatetracyclo[14.3.1.1(3,7).1(9,13)]docosa-1(20),3(22),4,6,9(21),10,12,16,18-nonaen-12-yl]benzamide trifluoroacetate], the “ALK % of inhibition” value in test [1] was 21%. For the same compound, the 50% inhibitory concentration (IC50) in test [2] turned out to be 103 nM; in test [3], 80 nM; in test [4] it was 154 nM; in test [5] it was 178 nM.
